This is an account of results in patent publication US20100029710A1, “COMPOUNDS HAVING BOTH ANGIOTENSIN II RECEPTOR ANTAGONISM AND PPARy ACTIVATING ACTIVITIES” (Pfizer Products Inc., priority 2006, published 2010).

The target in assay [1] is T1, human PPARγ LBD bound to Gal4 DBD (Homo sapiens, UniProt P37231).
T1 construct: expressed in transfected cells; host or cells: HepG2
T1 sequence (P37231 238-503 limits assumed): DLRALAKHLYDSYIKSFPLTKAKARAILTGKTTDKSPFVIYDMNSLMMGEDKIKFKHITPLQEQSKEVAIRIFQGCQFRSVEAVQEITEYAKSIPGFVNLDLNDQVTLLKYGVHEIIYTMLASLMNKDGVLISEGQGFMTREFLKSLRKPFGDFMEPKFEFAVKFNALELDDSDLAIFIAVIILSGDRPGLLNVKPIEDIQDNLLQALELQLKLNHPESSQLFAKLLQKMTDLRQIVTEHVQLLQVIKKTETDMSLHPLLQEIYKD
Put plainly: PPARγ transfection luciferase reporter assay in HepG2 cells. The following applies: for Emax: HepG2, 24 h, compared to full agonist response (standard TZD full agonist), read-out: PPARγ % activation; for EC50: HepG2, 24 hours exposure. The class given is cell-based. Summed up: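 HepG2 cells transiently co-transfected with Gal4 DBD–PPARγ LBD, luciferase reporter and β-galactosidase, then exposed 24 h to compound (0.1 nM–100 μM). Luciferase/β-gal ratio gives activation. EC50 is relative to each compound's own maximum; efficacy is % of a reference TZD full agonist.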
(Reporter assays use an easily measured gene product as a stand-in for the process of interest.)

Assay [2] deals with Spontaneously hypertensive rats (SHR). Put plainly: Blood pressure reduction in vivo assay (radiotelemetry). The following applies: SHR rat, single dose 10 mg/kg p.o. As to the method:
The rats are surgically implanted with radio-telemetry transmitters to allow capture of conscious, unrestrained systolic and diastolic BP as well as heart rate.
In vivo studies were conducted to show the effectiveness of a compound in reducing blood pressure due to its angiotensin II receptor antagonist activity, and its ability to induce insulin sensitization in a diabetic rat due to its PPARγ agonist activity.
Spontaneously hypertensive rats (SHR) were implanted with radiotelemetry devices capable of measuring blood pressure (BP) via an aortic cannula and transmitting the data to a receiving pad under the cage. Animals were conscious and had access to food and water ad libitum while blood pressure was monitored continuously. Rats were dosed with vehicle and monitored for 24 hours to establish baseline before administering compound and measuring changes in blood pressure for another 24 hours. Changes in blood pressure were calculated over time and compared to vehicle controls.

In assay [3] the target is T2, Human recombinant AT1 receptor (Homo sapiens, UniProt P30556).
T2 construct: purchased
T2 sequence (P30556 1-359): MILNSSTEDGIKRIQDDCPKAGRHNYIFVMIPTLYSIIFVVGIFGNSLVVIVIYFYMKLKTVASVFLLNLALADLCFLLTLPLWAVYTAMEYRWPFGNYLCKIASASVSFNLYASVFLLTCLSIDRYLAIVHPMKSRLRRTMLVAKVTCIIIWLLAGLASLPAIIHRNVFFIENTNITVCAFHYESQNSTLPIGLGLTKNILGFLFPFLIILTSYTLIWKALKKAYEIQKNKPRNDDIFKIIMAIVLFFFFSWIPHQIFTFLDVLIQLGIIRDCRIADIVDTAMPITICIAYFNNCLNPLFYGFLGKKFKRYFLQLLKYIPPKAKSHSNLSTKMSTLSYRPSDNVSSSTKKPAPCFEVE
Put plainly: AT1 receptor radioligand binding (flashplate). The following applies: 125I Sar1,Ile8-Angiotensin II radioligand. Summed up: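 Human recombinant AT1 receptor was coated on flashplates and competed against 125I-Sar1,Ile8-angiotensin II at its Kd concentration for 2 h at room temperature. Compounds were tested from […], with nonspecific binding defined by 10 μM angiotensin II. Ki was derived via Cheng-Prusoff.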

The subject of assay [4] is ZDF male rat. Kind of assay: Glucose lowering in vivo assay. The following applies: 10 mg/kg p.o. once daily for 28 days; for Difference from Vehicle Control: blood glucose. From the text: Homozygous expression of this mutation leads to a phenotype of hyperphagia, obesity, insulin resistance, hyperglycemia, and hypertriglyceridemia resulting in uncontrolled diabetes, β-cell failure, severe nephropathy, and proteinuria by 16 weeks of age.
The hypoglycemic activity of the compounds of this invention can be determined by the amount of test compound that delays or suppresses elevations in glucose levels relative to a vehicle without test compound in male ZDF rats.
Male Zucker Diabetic Fatty (ZDF/Crl-Lepr^fa) rats were obtained from Charles River Laboratories (Wilmington, Mass.). Rats were pair housed under a 12-h light/dark cycle with free access to water and Purina 5008 rat chow (Protein 26.8%, fat 16.7%, carbohydrates 56.5% kcal/vol; Purina Mills, Richmond, Ind.). Prior to the onset of diabetic hyperglycemia (fed blood glucose<200 mg/dl) rats were randomly allocated to groups based on HOMA values. The Homeostasis Model Assessment (HOMA) calculation estimates peripheral insulin resistance from corresponding insulin and glucose measurements. Rats were administered a once daily oral dose for 28 days with suspensions of vehicle alone (1.5% carboxymethyl-cellulose plus 0.2% Tween 20), vehicle plus test compound in the range 0.1-100 mg/kg. At the end of the study, an oral glucose tolerance test (OGTT, 2 g/kg dextrose) was conducted to measure glucose excursion. Tail venipuncture in conscious, 1 hr fasted animals at baseline and weekly thereafter, provided sample for blood glucose, serum insulin, triglycerides, cholesterol, and FFA measurements. Glucose levels were determined with a HemoCue Glucose Monitor (Ryan Diagnostics), insulin was determined by ELISA (Alpco), and lipids were determined by Cobas Mira Analyzer (Roche) and by enzymatic assays (Wako). Lipoprotein cholesterol was determined by FPLC following the method of Kieft et al. (Kieft K A, Bocan T M, Krause B R. Rapid on-line determination of cholesterol distribution among plasma lipoproteins after high-performance gel filtration chromatography. J Lipid Res 1991; 32(5): 859-66). Briefly, plasma was separated on a Superose 6HR 10/30 column (Pharmacia) and cholesterol was then measured in-line utilizing a post-column enzymatic cholesterol assay (Roche). Percent of total area for each lipoprotein fraction were calculated. These percent areas were then multiplied by the total plasma cholesterol concentration, yielding the cholesterol concentration in each fraction. Efficacy was determined by comparison to untreated vehicle controls and reference agents and active compounds selected for further evaluation.

Molecules are shown by their SMILES. Where only a bound is given, the exact number is not on record here.

What is called EC50 is the concentration needed to bring the measured effect to its halfway point. Low readings indicate greater potency, high ones weaker potency. A word on the IC50: it is the concentration that gives 50% inhibition. As for `CCc1nc2c(C)cc(CCO)nc2n1[C@H]1CCc2cc(-c3ccccc3-c3nnn[nH]3)ccc21` [Example 13a, 2-(3-((1S)-5-(2-(1H-tetrazol-5-yl)phenyl)-2,3-dihydro-1H-inden-1-yl)-2-ethyl-7-methyl-3H-imidazo[4,5-b]pyridin-5-yl)ethanol], in assay [1], the Emax came out at 24% and the EC50 turned out to be 415 nM. In assay [2], the Duration of activity is reported as more than 20 h and the “Maximal fall in Mean Blood Pressure after single dose of 10 mg/kg p.o. (mmHg)” value (from here on “Maximal fall … of 10 mg/kg p.o. (mmHg)”) is listed as −28 mmHg. Further, in assay [3], the IC50 was 4.1 nM. In assay [4], the “Blood Glucose (1 h Fast) after single daily dose of 10 mg/kg p.o. for 28 days” value (“Blood Glucose … of 10 mg/kg p.o. for 28 days” for short) came to 112 mg/dL and the “Difference from Vehicle Control” value is -477 mg/dL.

As to `CCc1nc2c(C)cc([C@@H](O)C(C)C)nc2n1[C@H]1CCc2cc(-c3ccccc3-c3nnn[nH]3)ccc21` [Example 10, (S)-1-(3-((1S)-5-(2-(1H-tetrazol-5-yl)phenyl)-2,3-dihydro-1H-inden-1-yl)-2-ethyl-7-methyl-3H-imidazo[4,5-b]pyridin-5-yl)-2-methylpropan-1-ol], in assay [1], the Emax is 27% and the EC50 turned out to be 145 nM. Further, in assay [2], the Duration of activity is more than 20 h and the “Maximal fall … of 10 mg/kg p.o. (mmHg)” value was −27 mmHg. In addition, the IC50 in assay [3] is 1.6 nM. In assay [4], the “Blood Glucose … of 10 mg/kg p.o. for 28 days” value stood at 239 mg/dL and the “Difference from Vehicle Control” value is -133 mg/dL.

For `CCc1nc2c(C)cc(CC(C)(C)O)nc2n1[C@H]1CCc2cc(-c3ccccc3-c3nnn[nH]3)ccc21` [Example 16, 1-(3-((1S)-5-(2-(1H-tetrazol-5-yl)phenyl)-2,3-dihydro-1H-inden-1-yl)-2-ethyl-7-methyl-3H-imidazo[4,5-b]pyridin-5-yl)-2-methylpropan-2-ol], in assay [1], the Emax turned out to be 20% and the EC50 came out at 250 nM. Moreover, in assay [2], the Duration of activity is reported as more than 20 h and the “Maximal fall … of 10 mg/kg p.o. (mmHg)” value was −37 mmHg. Also, the IC50 in assay [3] came out at 2.9 nM. Besides, in assay [4], the “Blood Glucose … of 10 mg/kg p.o. for 28 days” value came to 114 mg/dL and the “Difference from Vehicle Control” value was -475 mg/dL.

Turning to `CCc1nc2c(C)cc(CC(C)=O)nc2n1[C@H]1CCc2cc(-c3ccccc3-c3nnn[nH]3)ccc21` [Example 14, 1-(3-((1S)-5-(2-(1H-tetrazol-5-yl)phenyl)-2,3-dihydro-1H-inden-1-yl)-2-ethyl-7-methyl-3H-imidazo[4,5-b]pyridin-5-yl)propan-2-one], in assay [1], the Emax came out at 21% and the EC50 was 410 nM. Also, the IC50 in assay [3] was 5 nM.

In the case of `CCc1nc2c(C)cc(CCCO)nc2n1[C@H]1CCc2cc(-c3ccccc3-c3nnn[nH]3)ccc21` [Example 47, 3-(3-((1S)-5-(2-(1H-tetrazol-5-yl)phenyl)-2,3-dihydro-1H-inden-1-yl)-2-ethyl-7-methyl-3H-imidazo[4,5-b]pyridin-5-yl)propan-1-ol], in assay [1], the Emax is 34% and the response was half-maximal at 550 nM (EC50). Moreover, the IC50 in assay [3] stood at 1.3 nM.

Turning to `CCc1nc2c(C)cc(CC(O)CC(C)C)nc2n1[C@H]1CCc2cc(-c3ccccc3-c3nnn[nH]3)ccc21` (stereo partly drawn) [Example 18, 1-(3-((1S)-5-(2-(1H-tetrazol-5-yl)phenyl)-2,3-dihydro-1H-inden-1-yl)-2-ethyl-7-methyl-3H-imidazo[4,5-b]pyridin-5-yl)-4-methylpentan-2-ol], in assay [1], the Emax was 29% and the EC50 came to 85 nM. Besides, the IC50 in assay [3] was 5.4 nM.

On to `CCc1nc2c(C)cc(CCOC)nc2n1[C@H]1CCc2cc(-c3ccccc3-c3nnn[nH]3)ccc21` [Example 13, 3-((1S)-5-(2-(1H-tetrazol-5-yl)phenyl)-2,3-dihydro-1H-inden-1-yl)-2-ethyl-5-(2-methoxyethyl)-7-methyl-3H-imidazo[4,5-b]pyridine], for which, in assay [1], the Emax came out at 26% and the half-maximal effective concentration (EC50) was found to be 435 nM. For the same molecule, in assay [2], the Duration of activity is more than 20 h and the “Maximal fall … of 10 mg/kg p.o. (mmHg)” value is listed as −46 mmHg. Further, the IC50 in assay [3] is 2.5 nM. In assay [4], the “Blood Glucose … of 10 mg/kg p.o. for 28 days” value was found to be 120 mg/dL and the “Difference from Vehicle Control” value is -469 mg/dL.
